Laboratory results from patent USRE48461E1, “Modulation of androgen receptor expression” (Ionis Pharmaceuticals, Inc., priority 2012, dated 2021).

Key:
[1] = tested on: prostate-specific antigen (PSA) mRNA; test: Time-course PSA expression in C4-2B cells; assay type: cell-based, human
Procedure, shortened: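 C4-2B cells at 1,000/well in complete medium, treated with antisense oligonucleotide; ISIS 549148 as negative control. PSA and TMPRSS2 mRNA measured after 8, 24 and 48 h, given as percent inhibition relative to non-treated cells.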

[2] = tested on: AR mRNA; test: AR RNA expression in LNCaP cells (complete, CSS, CSS+DHT medium); assay type: cell-based, human; details: for Percent expression of AR in LNCaP cells cultured in CSS + DHT medium: CSS + DHT (1 nM) medium; for Percent expression of AR in LNCaP cells cultured in CSS + DHT medium / Percent expression of AR in LNCaP cells cultured in CSS medium: 48 hrs; for Percent expression of AR in LNCaP cells cultured in complete medium: 48 hours
[3] = tested on: C4-2 cells; test: C4-2 cell proliferation (complete or CSS+DHT medium); assay type: cell-based, human; details: 5 days; for Proliferation (% untreated control): C4-2 cells
Method: After a treatment period of 5 days in complete medium or CSS+1 nM DHT medium, the proliferative capacity of the cancer cells was measured with using CellTiter 96® AQueous One Solution or CellTiter-Glo® Cell Proliferation kit (Promega), following the manufacturer's instructions. […] The proliferative capacity of cells cultured in CSS medium without DHT is 17% of untreated control levels.

[4] = tested on: full length AR mRNA; test: Full-length AR RNA in VCaP cells (complete, CSS+DHT medium); assay type: cell-based, human; details: RNAiMax, 48 hrs
Method: Cells were plated at 10,000 cells per well. […] After an incubation period of 48 hrs, RNA levels of full length AR, the V7 variant, PSA and TMPRSS2 were measured.
After an incubation period of 48 hrs, RNA levels of full length AR, the V7 variant, PSA and TMPRSS2 were measured. The data is presented in Tables 108 expressed as percent expression of gene levels compared to the untreated control.
Cells were plated at 15,000 cells per well and cultured in CSS media for 16 hours. […] After 4 hrs, 1 nM DHT was added. […] After an incubation period of 48 hrs, RNA levels of AR, PSA and TMPRSS2 were measured.

[5] = tested on: MDA-MB-453 tumor; test: Tumor volume in MDA-MB-453 breast cancer orthotopic model; assay type: in vivo, NSG mice; details: Study 2, MDA-MB-453 model, NSG mice, 50 mg/kg s.c. 5 days per week for 2 weeks

TTGATTTAATGGTTGC [ISIS 560131] (MOE and (S)-cEt gapmer chemistry, further chemistry not given here) [targets intron 1]
Percent inhibition of PSA expression compared to the control group in 24 hours ([1]; 0.04 μM): 27% | Percent inhibition of PSA expression compared to the control group in 48 hours ([1]; 0.04 μM): 20% | Percent inhibition of PSA expression compared to the control group in 8 hours ([1]; 0.2 μM): 0% | Percent inhibition of PSA expression compared to the control group in 24 hours ([1]; 0.2 μM): 46% | Percent inhibition of PSA expression compared to the control group in 48 hours ([1]; 0.2 μM): 61% | Percent inhibition of PSA expression compared to the control group in 8 hours ([1]; 1 μM): 3% | Percent inhibition of PSA expression compared to the control group in 24 hours ([1]; 1 μM): 56% | Percent inhibition of PSA expression compared to the control group in 48 hours ([1]; 1 μM): 71% | Percent inhibition of PSA expression compared to the control group in 8 hours ([1]; 5.0 μM): 1% | Percent inhibition of PSA expression compared to the control group in 24 hours ([1]; 5.0 μM): 60% | Percent inhibition of PSA expression compared to the control group in 48 hours ([1]; 5.0 μM): 80% | PSA expression ([1]; time course): reduced PSA and TMPRSS2 expression in the cells relative to the control set at the 24 hr and 48 hr time points | Percent expression of AR in LNCaP cells cultured in CSS + DHT medium ([2]; 0.04 μM): 101% | Percent expression of AR in LNCaP cells cultured in CSS + DHT medium ([2]; 0.2 μM): 71% | Percent expression of AR in LNCaP cells cultured in CSS + DHT medium ([2]; 1 μM): 27% | Percent expression of AR in LNCaP cells cultured in CSS + DHT medium ([2]; 5.0 μM): 10% | Percent expression of AR in LNCaP cells cultured in CSS medium ([2]; 0.04 μM): 81% | Percent expression of AR in LNCaP cells cultured in CSS medium ([2]; 0.2 μM): 46% | Percent expression of AR in LNCaP cells cultured in CSS medium ([2]; 1 μM): 16% | Percent expression of AR in LNCaP cells cultured in CSS medium ([2]; 5.0 μM): 5% | Percent expression of AR in LNCaP cells cultured in complete medium ([2]; 0.04 μM): 101% | Percent expression of AR in LNCaP cells cultured in complete medium ([2]; 0.2 μM): 53% | Percent expression of AR in LNCaP cells cultured in complete medium ([2]; 1 μM): 17% | Percent expression of AR in LNCaP cells cultured in complete medium ([2]; 5.0 μM): 7% | Proliferation (% untreated control) ([3]; CSS + DHT medium, 0.04 μM): 106 % untreated control | Proliferation (% untreated control) ([3]; CSS + DHT medium, 0.2 μM): 94 % untreated control | Proliferation (% untreated control) ([3]; CSS + DHT medium, 1 μM): 47 % untreated control | Proliferation (% untreated control) ([3]; CSS + DHT medium, 5.0 μM): 31 % untreated control | Proliferation (% untreated control) ([3]; complete medium, 0.04 μM): 104 % untreated control | Proliferation (% untreated control) ([3]; complete medium, 0.2 μM): 82 % untreated control | Proliferation (% untreated control) ([3]; complete medium, 1 μM): 70 % untreated control | Proliferation (% untreated control) ([3]; complete medium, 5.0 μM): 51 % untreated control | proliferation of C4-2 cells ([3]; complete medium or CSS+1 nM DHT): reduced proliferation of the cells in a dose dependent manner compared to the control | Percent inhibition of full-length AR ([4]; CSS medium, 1.34 nM): 12% | Percent inhibition of full-length AR ([4]; CSS medium, 4.0 nM): 16% | Percent inhibition of full-length AR ([4]; CSS medium, 13.4 nM): 37% | Percent inhibition of full-length AR ([4]; CSS medium, 40 nM): 38% | Percent inhibition of full-length AR ([4]; complete medium, 1.34 nM): 0% | Percent inhibition of full-length AR ([4]; complete medium, 4.0 nM): 59% | Percent inhibition of full-length AR ([4]; complete medium, 13.4 nM): 77% | Percent inhibition of full-length AR ([4]; complete medium, 40 nM): 84% | Tumor volumes ([5]; Day 0): 144 | Tumor volumes ([5]; Day 8): 261 | Tumor volumes ([5]; Day 13): 243 | Tumor volumes ([5]; Day 20): 204 | Tumor volumes ([5]; Day 23): 232 | Tumor volumes ([5]; Day 27): 233 | Tumor volumes ([5]; Day 29): 258
